The text below walks through data of ChEMBL document CHEMBL1201862, “PubChem BioAssay data set” (2004).

Among the test systems are BT-549; DLD-1; DMS-114; HOP-18; KM-20L2; LXFL 529; M19-MEL; XF498.
What all share (assay): growth of human tumour cells (NCI), 48 h

Structures can show the parent of a compound that is named as a salt.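 1) Cells in 96-well plates. 2) Compound, 48 h, 5 concentrations. 3) Linear interpolation between surrounding doses. 4) Unreached endpoint = highest concentration. GI50 = concentration required for 50% inhibition of growth.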 Activity calls are given as the source filed them. Rule as the data show it: active = GI50 up to about 1.1 µM and inactive = higher.

As to `COc1cc2nc(-c3ccc4ccccc4c3)nc(O)c2cc1OC`, the GI50 in the experiment on BT-549 was > 100 µM (inactive).

On to `Cc1cn(CC2=NCC(C)N2)c(=O)[nH]c1=O` (centres undefined), for which the GI50 with BT-549 was > 100 µM (inactive).

Regarding `O=C1C(Cl)C(c2ccc(Cl)cc2)N1n1cnc2ccccc2c1=O` (centres undefined), the GI50 with DLD-1 is > 100 µM (inactive); with DMS-114, 42.3 µM (inactive); with HOP-18, 57.5 µM (inactive); in the experiment on KM-20L2, > 100 µM (inactive); with LXFL 529 it was 72.4 µM (inactive); in the experiment with M19-MEL it was > 100 µM (inactive). In addition, the GI50 with XF498 was 80.7 µM (inactive).

In the case of `CN(C)CCCN1c2ccccc2Sc2ccc(C(F)(F)F)cc21` [TRIFLUPROMAZINE HYDROCHLORIDE], the GI50 in the experiment on BT-549 was 12.8 µM (inactive); in the experiment on DLD-1, 17.2 µM (inactive); with DMS-114, 18.2 µM (inactive); in the experiment on KM-20L2 it was 11.3 µM (inactive); in the experiment on LXFL 529 it was 60 µM (inactive); in the experiment on M19-MEL, 17.5 µM (inactive).

For `O=C(Nc1cc(C(=O)Nc2cccc(S(=O)(=O)O)c2)cc(C(=O)Nc2cccc(S(=O)(=O)O)c2)c1)c1cccc(C(=O)Nc2cc(C(=O)Nc3cccc(S(=O)(=O)O)c3)cc(C(=O)Nc3cccc(S(=O)(=O)O)c3)c2)c1`, the GI50 in the experiment on BT-549 was > 100 µM (inactive).

`CC(=O)Nc1c(C)ccc2c1C(=O)c1ccccc1C2=O`: the GI50 was > 100 µM (inactive) with DLD-1; 35.2 µM (inactive) in the experiment on DMS-114; > 100 µM (inactive) in the experiment with HOP-18; > 100 µM (inactive) in the experiment on LXFL 529; > 100 µM (inactive) in the experiment on M19-MEL.

Turning to `CCOC(=O)c1cc(OC(=O)CC)c2c(OC)ccc(OC)c2c1`, the GI50 is > 100 µM (inactive) with DLD-1; 45 µM (inactive) in the experiment with DMS-114; > 100 µM (inactive) with HOP-18; > 10 µM (inactive) with KM-20L2; 37.8 µM (inactive) in the experiment with LXFL 529; 67.6 µM (inactive) in the experiment on M19-MEL. Also, the GI50 in the experiment with XF498 is > 100 µM (inactive).

On to `O=[N+]([O-])c1cc(-c2ccc([As](=O)(O)O)cc2)ccc1[As](=O)(O)O`, for which the GI50 in the experiment with BT-549 was > 100 µM (inactive).

In the case of `O=C(O)c1ccc2c(O)c(O)ccc2c1`, in the experiment with BT-549, the GI50 was 21.6 µM (inactive).

As for `CCOCN/C(N)=N\C#N`, the GI50 with DLD-1 was > 100 µM (inactive); with DMS-114, > 100 µM (inactive); in the experiment on HOP-18 it was > 100 µM (inactive); with KM-20L2, 89.1 µM (inactive); in the experiment on LXFL 529, > 100 µM (inactive); with M19-MEL, > 100 µM (inactive). For the same compound, in the experiment with XF498, the GI50 is > 100 µM (inactive).

On to `COc1ccc(/C=C2/C(=O)C(c3ccccc3)N(c3ccccc3)C2=O)cc1OC` (centres undefined), for which the GI50 with BT-549 was > 10 µM (inactive).

For the compound `O=C1C=CC(=O)c2c(NCC3CC3)ccc(NCC3CC3)c21`, the GI50 in the experiment on BT-549 is 25.9 µM (inactive).

For the compound `CN1N=CSC12C(=O)N(c1ccc(Cl)cc1)C(=O)N2c1ccc(Cl)cc1` (centres undefined), the GI50 with DLD-1 is 4.06 µM (inactive); in the experiment on DMS-114 it was 1.87 µM (inactive); in the experiment with HOP-18, 3.43 µM (inactive); in the experiment with KM-20L2 it was 3.21 µM (inactive); in the experiment with LXFL 529 it was 3.34 µM (inactive); in the experiment on M19-MEL, 3.37 µM (inactive).

Turning to `O=C1Nc2c(Cl)cc(Cl)cc2/C1=N/N=C/c1ccccc1O`, the GI50 in the experiment with BT-549 is 15.1 µM (inactive).

On to `O=C1NC(c2ccccc2)N=C2Oc3ccccc3C=C12` (centres undefined), for which, in the experiment on BT-549, the GI50 was 32.6 µM (inactive).

On to `O=[N+]([O-])c1c(F)c(F)c2c(c1F)N(CCCCCl)c1ccccc1S2`, for which the GI50 in the experiment with BT-549 was 14.6 µM (inactive).

For the compound `CC(C)Oc1cccc(N2C(Nc3ccccc3)=Nc3ccncc3S2(=O)=O)c1`, in the experiment on BT-549, the GI50 is 22.4 µM (inactive).

Take `O=[N+]([O-])c1ccc2sc(/C=N/c3cnccn3)cc2c1`: the GI50 in the experiment on BT-549 was 85.7 µM (inactive).

In the case of `CCOC(=O)c1cn(CC)c2ccc3ccsc3c2c1=O`, the GI50 with BT-549 is > 100 µM (inactive).

On to `COC(=O)Cc1c2n(c3ccccc13)C(=O)N1c3ccccc3C(CC(=O)OC)C21` (centres undefined), for which, in the experiment on BT-549, the GI50 was 25.5 µM (inactive).

For `CC(=O)c1cccc(NC(=O)C(=O)c2c(O)oc3ccccc3c2=O)c1`, the GI50 with BT-549 was > 100 µM (inactive).

Consider `C(=C\c1ccccc1)/Cn1nc(-c2ccccc2)nc1-c1cnccn1`, for which the GI50 in the experiment on BT-549 was > 100 µM (inactive).

Turning to `N=C(N)NS(=O)(=O)c1ccc(NCc2cccc3c(=O)c4ccc(Cl)cc4oc23)cc1`, the GI50 in the experiment with BT-549 is 7.18 µM (inactive).

As for `CC(=O)[C@@]1(O)CC[C@H]2[C@@H]3C[C@H](C)C4=CC(=O)CC[C@]4(C)[C@H]3[C@@H](O)C[C@@]21C`, in the experiment with BT-549, the GI50 is > 100 µM (inactive).

On to `CC(=O)NC(C)(C)C1CCC(C)=C(c2ccccc2)C1` (centres undefined), for which the GI50 with BT-549 is > 100 µM (inactive).

Turning to `Cc1ncc([N+](=O)[O-])n1CCNS(=O)(=O)CCCn1ccnc1[N+](=O)[O-]`, the GI50 in the experiment with BT-549 is > 100 µM (inactive).

For the compound `CC1=C/C(=N/N2C(=O)/C(=C/c3ccc(Cl)cc3)N=C2c2ccccc2)CC(C)(C)C1`, the GI50 in the experiment on BT-549 was > 100 µM (inactive).

Consider `O=S1(=O)OCCOS(=O)(=O)C1(I)I`, for which the GI50 with DLD-1 was 16.9 µM (inactive); with DMS-114, 18 µM (inactive); in the experiment on LXFL 529, 11 µM (inactive); in the experiment on M19-MEL, 17.7 µM (inactive); with XF498, 18 µM (inactive).
